Measurements published in EP0777471B1, “INHIBITION OF LEUKOTRIENE BIOSYNTHESIS WITH UREA DERIVATIVES” (MINNESOTA MINING AND MANUFACTURING COMPANY, priority 1994, dated 1996).
Values joined by “and” are separate entries in the source; they are usually repeats but may differ in a detail not shown here. Identical values can stand only once.

Tests used:
[1] = test system: production of Leukotriene B4; test: Rat ex vivo Leukotriene B4 inhibition (oral dosing, blood challenged with A23187); assay type: in vivo, Rats; conditions: two hours post dose
Outline: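 Male CD rats (250 g, non-fasted) dosed orally with compound in PEG 400, 5 rats/group; blood drawn by cardiac puncture before and 2 h after dosing. Heparinized blood challenged with A23187 calcium ionophore, 30 min at 37°C; plasma LTB4 measured by radioimmunoassay. % inhibition = post-dose vs pre-dose LTB4 level.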

[2] = test system: production of Leukotriene C4 in mouse peritoneal macrophages; test: In vitro mouse peritoneal macrophage Leukotriene C4 inhibition (zymosan-stimulated, LTC4 radioimmunoassay); assay type: cell-based; conditions: Zymosan 50 µg/mL
Outline: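 Adherent peritoneal macrophages from female CD-1 mice were preincubated 15 minutes at 37°C with compound (10, 1 and 0.1 µM, duplicate; DMSO). They were then stimulated with 50 µg/mL zymosan for 1 to 2 hours. Leukotriene C4 released into the medium was measured by radioimmunoassay.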

Row | Structure (SMILES) | %I ([1]; 5 mg/Kg) [%] | %I ([1]; 50 mg/Kg) | IC50 [2] [µM] | %I ([1]; 25 mg/Kg) [%] | %I ([1]; 10 mg/Kg) [%] | %I ([1]; 20 mg/Kg) [%]
1 | CSc1ccc(NC(=O)N(C)O)cc1 [Compound 1, 1-Hydroxy-1-methyl-3-[4-(methylthio)phenyl]urea] | 18 | 87% | < 1 |  |  | 
2 | COc1cccc(NC(=O)N(C)O)c1 [Compound 5, 1-hydroxy-3-(3-methoxyphenyl)-1-methylurea] |  | 82% | 0.2 |  |  | 
3 | CN(O)C(=O)Nc1cccc(Br)c1 [Compound 6, 3-(3-bromophenyl)-1-hydroxy-1-methylurea] | 39 | 47% | < 0.1 |  |  | 
4 | Cc1cccc(NC(=O)N(C)O)c1 [Compound 7, 1-hydroxy-1-methyl-3-(3-methylphenyl)urea] | 32 |  | < 1 |  |  | 
5 | CN(O)C(=O)Nc1cccc(F)c1 [Compound 8, 3-(3-fluorophenyl)-1-hydroxy-1-methylurea] | 29 |  | 0.4 |  |  | 
6 | CN(O)C(=O)Nc1cccc([N+](=O)[O-])c1 [Compound 9, 1-hydroxy-1-methyl-3-(3-nitrophenyl)urea] |  |  | 0.7 | 34 |  | 
7 | CN(O)C(=O)Nc1ccccc1 [Compound 10, 1-hydroxy-1-methyl-3-phenylurea] |  | 41% | < 1 | 23 |  | 
8 | CSc1cccc(NC(=O)N(O)C(C)C)c1 [Compound 16, 1-hydroxy-1-(1-methylethyl)-3-[3-(methylthio)phenyl]urea] |  |  | < 1 | 74 |  | 
9 | CC(C)N(O)C(=O)Nc1ccccc1 [Compound 17, 1-hydroxy-1-(1-methylethyl)-3-phenylurea] |  | 26% | 0.6 |  |  | 
10 | CC(C)N(O)C(=O)Nc1ccc(F)cc1 [Compound 18, 3-(4-fluorophenyl)-1-hydroxy-1-(1-methylethyl)urea] |  | 3% | 0.8 |  |  | 
11 | CC(C)N(O)C(=O)Nc1ccc(Br)cc1 [Compound 19, 3-(4-bromophenyl)-1-hydroxy-1-(1-methylethyl)urea] |  | 3% | < 1 |  |  | 
12 | CC(C)N(O)C(=O)Nc1ccccc1F [Compound 20, 3-(2-fluorophenyl)-1-hydroxy-1-(1-methylethyl)urea] |  | 19% | 0.2 |  |  | 
13 | Cc1cccc(NC(=O)N(O)C(C)C)c1 [Compound 21, 1-hydroxy-1-(1-methylethyl)-3-(3-methylphenyl)urea] |  |  | 0.1 |  |  | 
14 | COc1ccc(NC(=O)N(O)C(C)C)cc1 [Compound 23, 1-hydroxy-3-(4-methoxyphenyl)-1-(1-methylethyl)urea] |  | 45% | 0.2 |  |  | 
15 | CC(C)N(O)C(=O)Nc1ccccc1Cl [Compound 24, 3-(2-chlorophenyl)-1-hydroxy-1-(1-methylethyl)urea] |  | 29% | 0.2 |  |  | 
16 | Cc1ccccc1NC(=O)N(O)C(C)C [Compound 25, 1-hydroxy-1-(1-methylethyl)-3-(2-methylphenyl)urea] |  | 45% and 79% | 0.6 | 44 | 13 | 
17 | CC(C)CCN(O)C(=O)Nc1ccccc1 [Compound 44, 1-hydroxy-1-(3-methylbutyl)-3-phenylurea] |  | 18% | < 1 |  |  | 
18 | CC(C)CN(O)C(=O)Nc1ccccc1 [Compound 54, 1-Hydroxy-1-(2-methylpropyl)-3-phenylurea] |  | 42% | 1.3 |  |  | 
19 | CN(O)C(=O)Nc1cccc(S(C)(=O)=O)c1 [Compound 59, 1-Hydroxy-1-methyl-3-[3-(methylsulfonyl)phenyl]urea] | 9 | 65% and 87% | 0.3 | 49 | 23 | 20
